Residues, ends and D or L forms follow the SMILES beside them. No end group written: not given here. *: point of attachment. OregonGreen488(6-carbonyl) = O=C1OC2(c3cc(F)c(O)cc3Oc3cc(O)c(F)cc32)c2cc(C(=O)*)ccc21

The results in this text go back to US8636978B2, “Cyclized NGR peptide compounds, compositions, and methods of their use” (The United States of America, as Represented by the …, priority 2008, dated 2014).

Assay [1] deals with HT-1080 (CD13+) cells. The experiment in a line: Cell binding by epifluorescent microscopy, CD13-positive cells. Format: cell-based, human. As to conditions: 37° C. Here is the method: (§1) Human fibrosarcoma (HT-1080) and human adenocarcinoma (MCF7) cells were purchased from American Type Culture Collection (ATCC, Manassas, Va.). HT-1080 cells were grown in MEME (ATCC) supplemented with 10% fetal bovine serum (ATCC), and MCF7 cells were grown in the same culture medium with the addition of 0.01 mg/mL bovine insulin (Sigma-Aldrich, St. Louis, Mo.). Both cell lines were maintained in a 5% CO2 incubator at 37° C. Anti-CD13 monoclonal antibody (WM15, Alexa Fluor 488-conjugated) was obtained from AbD Serotec (Raleigh, N.C.).
(§2) Cellular binding of cK(OG)NGRE to the CD13/APN marker was assessed by plating HT-1080 (CD13+) and MCF7 (CD13−) cells in eight-chambered slides (LabTekII, Nunc, Rochester, N.Y.) at a concentration of 15,000 cells/well. After 24 h, cells were washed once with phosphate-buffered saline (PBS) and incubated in complete culture media at 37° C. for 30 min with either cK(OG)NGRE (20 μM) or the anti-CD13 antibody (final concentration 2.5 μg/mL). Slides were washed twice with PBS for 5 min, fixed in 4% paraformaldehyde for 20 min, and mounted with Prolong Gold antifade reagent with DAPI (Invitrogen, Carlsbad, Calif.) and imaged with an epifluorescent microscope (Zeiss Axio Imager.M1, Thornwood, N.Y.) after 24 h. […]

In assay [2] the test system is MCF7 (CD13−) cells. The assay can be described thus: Cell binding by epifluorescent microscopy, CD13-negative cells. Format: cell-based, human. As to conditions: cK(OG)NGRE 20 μM or anti-CD13 antibody 2.5 μg/mL, 37° C., 30 min. The procedure: as §1, §2
Assay [3] concerns CD13-positive HT-1080 cells.

As for `N=C(N)NCCC[C@@H]1NC(=O)CNC(=O)[C@H](CC(N)=O)NC(=O)[C@H](CCCCNC(=O)c2ccc3c(c2)C2(OC3=O)c3cc(F)c(O)cc3Oc3cc(O)c(F)cc32)NC(=O)[C@H](CCC(N)=O)NC1=O` [cK(OG)NGRE] (cyclo(K(OregonGreen488(6-carbonyl))NGRQ)), the “in vitro binding to HT-1080 cells (fluorescence micrographs)” value in assay [1] (cK(OG)NGRE 20 μM or anti-CD13 antibody 2.5 μg/mL, 30 min) is on record as “clearly demonstrated binding”. Also, the “localization of fluorescence in HT-1080 cells” value in assay [1] (epifluorescent microscopy, 30 min incubation) is reported as “internalization of the peptide”. Further, the “in vitro binding to MCF7 cells (fluorescence micrographs)” value in assay [2] is recorded as “minimal binding”. Also, the EC50 (usually the concentration at which the effect is half-maximal) in assay [3] worked out at 61 µM.

As for KNGRE [reference compound], the EC50 in assay [3] is 220 µM.
